Values joined by “and” are separate entries in the source; they are usually repeats but may differ in a detail not shown here. Equal values may be shown once.
Conditions: for mass density / viscosity / speed of sound / vapor or sublimation pressure: Liquid; for mass density: Vibrating tube method; for surface tension liquid-gas: Drop volume; for viscosity: Capillary tube (Ostwald / Ubbelohde) method; for speed of sound: Frequency=3 MHz, Single path-length method; for vapor or sublimation pressure: Ebulliometric method (Recirculating still)

OCc1cccs1 [2-thiophenemethanol]
Conditions | mass density | speed of sound [m/s] | viscosity [mPa·s]
313.15 K, 55000 kPa | 1216.51 kg/m3 | – | –
313.15 K, 60000 kPa | 1218.68 kg/m3 | – | –
313.15 K, 65000 kPa | 1220.8 kg/m3 | – | –
315.65 K, 100 kPa | 1186.63 kg/m3 | 1450.4 | 4.147
318.15 K, 100 kPa | 1184.39 kg/m3 | 1443.2 | 3.87
318.15 K, 2000 kPa | 1185.52 kg/m3 | – | –
318.15 K, 5000 kPa | 1187.27 kg/m3 | – | –
318.15 K, 7000 kPa | 1188.42 kg/m3 | – | –
318.15 K, 10000 kPa | 1190.12 kg/m3 | – | –
318.15 K, 15000 kPa | 1192.88 kg/m3 | – | –
318.15 K, 20000 kPa | 1195.57 kg/m3 | – | –
318.15 K, 25000 kPa | 1198.18 kg/m3 | – | –
318.15 K, 30000 kPa | 1200.72 kg/m3 | – | –
318.15 K, 35000 kPa | 1203.2 kg/m3 | – | –
318.15 K, 40000 kPa | 1205.62 kg/m3 | – | –
318.15 K, 45000 kPa | 1207.98 kg/m3 | – | –
318.15 K, 50000 kPa | 1210.29 kg/m3 | – | –
318.15 K, 55000 kPa | 1212.54 kg/m3 | – | –
318.15 K, 60000 kPa | 1214.74 kg/m3 | – | –
318.15 K, 65000 kPa | 1216.9 kg/m3 | – | –
320.65 K, 100 kPa | 1182.14 kg/m3 | 1436 | 3.615
323.15 K, 100 kPa | 1179.88 kg/m3 | 1428.8 | 3.355
323.15 K, 2000 kPa | 1181.03 kg/m3 | – | –
323.15 K, 5000 kPa | 1182.82 kg/m3 | – | –
323.15 K, 7000 kPa | 1183.99 kg/m3 | – | –
323.15 K, 10000 kPa | 1185.73 kg/m3 | – | –
323.15 K, 15000 kPa | 1188.55 kg/m3 | – | –
323.15 K, 20000 kPa | 1191.29 kg/m3 | – | –
323.15 K, 25000 kPa | 1193.95 kg/m3 | – | –
323.15 K, 30000 kPa | 1196.55 kg/m3 | – | –
323.15 K, 35000 kPa | 1199.07 kg/m3 | – | –
323.15 K, 40000 kPa | 1201.53 kg/m3 | – | –
323.15 K, 45000 kPa | 1203.93 kg/m3 | – | –
323.15 K, 50000 kPa | 1206.28 kg/m3 | – | –
323.15 K, 55000 kPa | 1208.56 kg/m3 | – | –
323.15 K, 60000 kPa | 1210.8 kg/m3 | – | –
323.15 K, 65000 kPa | 1212.99 kg/m3 | – | –
325.65 K, 100 kPa | 1177.63 kg/m3 | 1421.6 | 3.17
328.15 K, 100 kPa | 1175.35 kg/m3 and 1175.36 kg/m3 | 1414.5 | 2.957
328.15 K, 2000 kPa | 1176.53 kg/m3 | – | –
328.15 K, 5000 kPa | 1178.35 kg/m3 | – | –
328.15 K, 7000 kPa | 1179.55 kg/m3 | – | –
328.15 K, 10000 kPa | 1181.33 kg/m3 | – | –
328.15 K, 15000 kPa | 1184.21 kg/m3 | – | –
328.15 K, 20000 kPa | 1187 kg/m3 | – | –
328.15 K, 25000 kPa | 1189.72 kg/m3 | – | –
328.15 K, 30000 kPa | 1192.36 kg/m3 | – | –
328.15 K, 35000 kPa | 1194.93 kg/m3 | – | –
328.15 K, 40000 kPa | 1197.44 kg/m3 | – | –
328.15 K, 45000 kPa | 1199.88 kg/m3 | – | –
328.15 K, 50000 kPa | 1202.26 kg/m3 | – | –
328.15 K, 55000 kPa | 1204.58 kg/m3 | – | –
328.15 K, 60000 kPa | 1206.86 kg/m3 | – | –
328.15 K, 65000 kPa | 1209.08 kg/m3 | – | –
330.65 K, 100 kPa | 1173.09 kg/m3 | 1407.3 | 2.785
333.15 K, 100 kPa | 1170.8 kg/m3 and 1170.82 kg/m3 | 1400.1 | 2.628
333.15 K, 2000 kPa | 1172 kg/m3 | – | –
333.15 K, 5000 kPa | 1173.87 kg/m3 | – | –
333.15 K, 7000 kPa | 1175.1 kg/m3 | – | –
333.15 K, 10000 kPa | 1176.91 kg/m3 | – | –
333.15 K, 15000 kPa | 1179.85 kg/m3 | – | –
333.15 K, 20000 kPa | 1182.7 kg/m3 | – | –
333.15 K, 25000 kPa | 1185.47 kg/m3 | – | –
333.15 K, 30000 kPa | 1188.16 kg/m3 | – | –
333.15 K, 35000 kPa | 1190.78 kg/m3 | – | –
333.15 K, 40000 kPa | 1193.33 kg/m3 | – | –
333.15 K, 45000 kPa | 1195.82 kg/m3 | – | –
333.15 K, 50000 kPa | 1198.24 kg/m3 | – | –
333.15 K, 55000 kPa | 1200.6 kg/m3 | – | –
333.15 K, 60000 kPa | 1202.91 kg/m3 | – | –
333.15 K, 65000 kPa | 1205.17 kg/m3 | – | –
335.65 K, 100 kPa | 1168.53 kg/m3 | 1392.9 | 2.486
338.15 K, 100 kPa | 1166.23 kg/m3 and 1166.25 kg/m3 | 1385.8 | 2.372
338.15 K, 2000 kPa | 1167.46 kg/m3 | – | –
338.15 K, 5000 kPa | 1169.37 kg/m3 | – | –
338.15 K, 7000 kPa | 1170.63 kg/m3 | – | –
338.15 K, 10000 kPa | 1172.48 kg/m3 | – | –
338.15 K, 15000 kPa | 1175.48 kg/m3 | – | –
338.15 K, 20000 kPa | 1178.39 kg/m3 | – | –
338.15 K, 25000 kPa | 1181.22 kg/m3 | – | –
338.15 K, 30000 kPa | 1183.96 kg/m3 | – | –
338.15 K, 35000 kPa | 1186.63 kg/m3 | – | –
338.15 K, 40000 kPa | 1189.22 kg/m3 | – | –
338.15 K, 45000 kPa | 1191.75 kg/m3 | – | –
338.15 K, 50000 kPa | 1194.21 kg/m3 | – | –
338.15 K, 55000 kPa | 1196.62 kg/m3 | – | –
338.15 K, 60000 kPa | 1198.96 kg/m3 | – | –
338.15 K, 65000 kPa | 1201.25 kg/m3 | – | –

Conditions | surface tension liquid-gas [mN/m] | vapor or sublimation pressure [kPa]
315.65 K | 41.73 | –
318.15 K | 41.48 | –
320.65 K | 41.22 | –
323.15 K | 40.95 | –
325.65 K | 40.67 | –
328.15 K | 40.4 | –
330.65 K | 40.1 | –
333.15 K | 39.8 | –
335.65 K | 39.51 | –
338.15 K | 39.24 | –
351.15 K | – | 0.545
354.25 K | – | 0.665
357.17 K | – | 0.785
361.3 K | – | 1.025
365.19 K | – | 1.275
366.38 K | – | 1.355
367.49 K | – | 1.415
368.14 K | – | 1.475
369.77 K | – | 1.61
372.56 K | – | 1.88
373.21 K | – | 1.96
377.74 K | – | 2.44
382.13 K | – | 3.06
386.07 K | – | 3.675
387.56 K | – | 3.93
388.56 K | – | 4.15
391.84 K | – | 4.77
393.87 K | – | 5.25
397.94 K | – | 6.25
399.72 K | – | 6.8
402.41 K | – | 7.6
404.37 K | – | 8.25
406.56 K | – | 9
408.27 K | – | 9.665
411.5 K | – | 10.96
415.06 K | – | 12.6
416.56 K | – | 13.38
418.63 K | – | 14.47
420.23 K | – | 15.36
422.21 K | – | 16.51
424.64 K | – | 18.05
426.07 K | – | 19
428.27 K | – | 20.52
429.37 K | – | 21.34
431.17 K | – | 22.77
432.56 K | – | 23.88
433.65 K | – | 24.78
